Source: patent US12559750B2, “Methods and compositions for treatment of polycystic kidney disease” (Regulus Therapeutics Inc., priority 2021, dated 2026)

Tested on: C57Bl/6J male mice
Assay: ICV maximum tolerated dose study, Study 1
Assay type: in vivo, mouse
Conditions: 7-day
Procedure: Compounds (RG-NG-1017, RGLS4326, RG-NG-1001) were evaluated in a pilot maximum tolerated dose (MTD) study (discussed below). RG-NG-1017, RGLS4326 and RG-NG-1001 were initially evaluated at 4 dose-levels each. RG-NG-1017 was included for evaluation as a non-AMPA-R binding compound, as compared to RGLS4326 and RG-NG-1001, which bind AMPA-R. C57Bl/6J male mice (Jackson Laboratories), age 6-7 weeks, were used in this study. Mice were assigned randomly to treatment groups, and the study was blinded. Animals were allowed to acclimate for no less than 5 days and housed on a 12 hr light/dark cycle (lights on 7:00 AM). No more than 4 mice were house in each cage in a ventilated cage rack system. The diet consisted of standard rodent chow and water ad libitum.
The following parameters were used for this study: • 1. Route(s) of administration: intracerebroventricular (ICV) dosing of RG-NG-1017, RG-NG-1001, RGLS4326 • 2. Dose Volume(s): 4 μL • 3. Formulation(s): vehicle, Ca^2+ and Mg^2+ free dPBS • 4. Dose Frequency: Once • 5. Study duration: 8 Days • 6. Number of Groups: 3 • 7. Number of animals per group: (2-4 each group) • 8. Total number of animals: […]
For the ICV administration, mice were anesthetized and positioned for injections. The skin over the skull was incised, and a small hole was made in the skull above the target using a microdrill. The stereotactic coordinates were anteroposterior (AP), −0.4 mm; mediolateral (ML), +/−1.0-1.5 mm; dorsoventral (DV), −3.0 mm from the bregma for injection into both the right and left lateral cerebral ventricles (Hironaka et al, 2015). Animals were injected unilaterally with 4 μl into the right lateral cerebral ventricle. Compounds were injected over 1-2 min, and the needle was left in place for 0.5-1 min prior to withdrawal. The incision was closed with sutures, wound clips, or VetBond.
Following ICV treatment (Day 0), animals were monitored for 7 days in which daily health checks, body weight, and mortality was recorded. On Day 7, brain and kidney were collected and fixed (10% formalin) and stored pending histology.

In the case of “ASGSCMAFCFUFUMUSGS [RGLS4326, reference compound]”, the “Mortality/total number of mice” value (single ICV 2.5 μg) is reported as 0/3, the “Mortality/total number of mice” value (single ICV 5 μg) is reported as 2/4 and the “Mortality/total number of mice” value (single ICV 10 μg) is reported as 3/4. For the same sequence, the “Mortality/total number of mice” value (single ICV 25 μg) was 3/3, the “Mortality/total number of mice” value (single ICV 50 μg) was 3/3 and the “Mortality/total number of mice” value (single ICV 100 μg) was 2/2. The “Mortality/total number of mice” value (single ICV 300 μg) was 2/2 and the “Mortality/total number of mice” value (single ICV 600 μg) was 2/2.
